Measured values published in patent US20060063789A1, “Aminobenzamide derivatives as glycogen synthase kinase 3 beta inhibitors” (priority 2001, published 2006).

Legend:
GSK3β = GSK3β (Homo sapiens, UniProt P49841); test: GSK3beta assay (SPA, biotinylated phosphorylated CREB peptide, ATP-P33); type: biochemical; details: −log IC50 (M); 19 nM GSK3β, 5 μM biotinylated phosphorylated CREB peptide, 1 μM ATP, 25° C., one hour
Experimental: GSK3beta assays were performed at 25° C. in a 100 μl reaction volume of 25 mM Tris (pH 7.4) containing 10 mM MgCl2, 1 mM DTT, 0.1 mg/ml BSA, 5% glycerol and containing 19 nM GSK3β, 5 μM biotinylated phosphorylated CREB peptide, 1 μM ATP, 2 nM ATP-P^33 and a suitable amount of a test compound of formula (I) or (I′). After one hour, the reaction was terminated by adding 70 μl of Stop mix (1 mM ATP, 18 mg/ml streptavidin coated PVT SPA bead pH 11.0). The beads to which the phosphorylated CREB peptide is attached were allowed to settle for 30 minutes and the radioactivity of the beads was counted in a microtiterplate scintillation counter and compared with the results obtained in a control experiment (without the presence of a test compound) in order to determine the percentage of GSK3β inhibition. The IC50 value, i.e. the concentration (M) of the test compound at which 50 % of GSK3β is inhibited, was calculated from the dose response curve obtained by performing the above-described GSK3β assay in the presence of different amounts of the test compound.
Table 4 lists pIC50 values (−log IC50 (M)) obtained in the above-described test for the present compounds.

Sequence of GSK3β (P49841 whole entry, species assumed): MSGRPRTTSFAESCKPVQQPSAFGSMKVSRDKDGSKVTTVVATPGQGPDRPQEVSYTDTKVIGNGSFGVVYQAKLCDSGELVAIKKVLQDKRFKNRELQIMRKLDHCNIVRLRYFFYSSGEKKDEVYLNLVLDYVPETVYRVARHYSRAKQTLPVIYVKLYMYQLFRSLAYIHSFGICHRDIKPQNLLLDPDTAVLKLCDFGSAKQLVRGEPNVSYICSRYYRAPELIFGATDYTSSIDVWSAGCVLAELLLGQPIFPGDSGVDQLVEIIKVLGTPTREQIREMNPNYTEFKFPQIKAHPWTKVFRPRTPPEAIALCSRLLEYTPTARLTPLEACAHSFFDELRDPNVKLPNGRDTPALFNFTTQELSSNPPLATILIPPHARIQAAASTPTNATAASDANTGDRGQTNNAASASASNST

Compound	IC50 (GSK3β)	melting point
N#Cc1cnc(Nc2cccc(C(N)=O)c2)nc1OCc1ccccc1 [Compound 9, 3-[[5-cyano-4-(phenylmethoxy)-2-pyrimidinyl]amino]-benzamide]	1.82e-08 M	260 to 261 °C
NC(=O)c1cccc(Nc2nccc(OCc3ccccc3)n2)c1 [Compound 17]	1.41e-06 M	–
NC(=O)c1ccc(Nc2ncc(Br)c(OCc3ccccc3)n2)cc1 [Compound 22, 4-[[5-bromo-4-(phenylmethoxy)-2-pyrimidinyl]amino]-benzamide]	6.46e-08 M	–
N#Cc1cnc(Nc2ccc(C(N)=O)cc2)nc1OCc1ccccc1 [Compound 23, 4-[[5-cyano-4-(phenylmethoxy)-2-pyrimidinyl]amino]-benzamide]	2.19e-08 M	–
NC(=O)c1cccc(Nc2ncc(Br)c(OCc3ccccc3)n2)c1 [Compound 4]	5.25e-08 M	216 to 217 °C
NC(=O)c1cccc(Nc2ncc([N+](=O)[O-])c(NCc3ccccc3)n2)c1 [Compound 1]	1.82e-07 M	–
